Test results published in patent publication US4436904A, “Cephalosporins” (Kanto Ishi Pharmaceutical Co., Ltd., priority 1981, dated 1984).
In brackets after ≈: the same amount, converted by molar mass. Like-named read-outs stand apart in the source and are kept apart here.

Tests used:
Assay in all cases: Minimum inhibitory concentration (MIC), standard method of the Japanese Chemotherapeutic Association
[1] = test system: Staphylococcus epidermidis ATCC12228; format: cell-based
Proteus morganii IID 602 = format: cell-based; settings: Morganella morganii
[2] = test system: Pseudomonas aeruginosa IFO 13739; format: cell-based
[3] = test system: Salmonella typhimurium IID 1000; format: cell-based; settings: Salmonella enterica, read-out: Minimum Inhibitory Concentration (MIC)
[4] = test system: Pseudomonas aeruginosa IFO 3080; format: cell-based
[5] = test system: Staphylococcus aureus TERAJIMA; format: cell-based; settings: read-out: Minimum Inhibitory Concentration (MIC)
Escherichia coli N I H J = format: cell-based; settings: read-out: Minimum Inhibitory Concentration (MIC)
[6] = test system: Salmonella enteritidis IID 604; format: cell-based; settings: Salmonella enterica, read-out: Minimum Inhibitory Concentration (MIC)
Escherichia coli MEGAWA = format: cell-based; settings: for MIC: Escherichia coli
Proteus vulgaris = format: cell-based; settings: read-out: Minimum Inhibitory Concentration (MIC)
[7] = test system: Pseudomonas pudita IID 5121; format: cell-based
[8] = test system: Enterobacter cloacae IID 977; format: cell-based
[9] = test system: Shigella dysenteriae IID 633; settings: IID633, read-out: Minimum Inhibitory Concentration (MIC)
[10] = test system: Serratia marcenscens IFO 12648; format: cell-based
[11] = test system: Klebsiella pneumoniae IID 865; format: cell-based
[12] = test system: Staphylococcus aureus 209-P; format: cell-based; settings: read-out: Minimum Inhibitory Concentration (MIC)
Shigella sonnei IID 969 = format: cell-based; settings: IID969, Inoculum size: 10^6 cells/ml
[13] = test system: Enterobacter aerogenes IID 5206; format: cell-based; settings: Klebsiella aerogenes
[14] = test system: Bacillus subtilis ATCC 6633; format: cell-based
Shigella boydii IID 627 = format: cell-based; settings: IID627, Inoculum size: 10^6 cells/ml
[15] = test system: Salmonella paratyphi IID 605; settings: Salmonella enterica, IID605|PARATYPHI, read-out: Minimum Inhibitory Concentration (MIC)
[16] = IID602, read-out: Minimum Inhibitory Concentration (MIC)
[17] = IFO3080, read-out: Minimum Inhibitory Concentration (MIC)
[18] = Inoculum size: 10^6 cells/ml, weight concentration
[19] = IFO12648, read-out: Minimum Inhibitory Concentration (MIC)
[20] = IFO13739, read-out: Minimum Inhibitory Concentration (MIC)
[21] = Inoculum size: 10^6 cells/ml, potency concentration
[22] = Inoculum size: 10^6 cells/ml, potency concentration, read-out: Minimum Inhibitory Concentration (MIC)
[23] = IID5121, Inoculum size: 10^6 cells/ml, potency concentration, read-out: Minimum Inhibitory Concentration (MIC)
[24] = IID977, read-out: Minimum Inhibitory Concentration (MIC)
[25] = IFO12648, Inoculum size: 10^6 cells/ml, potency concentration, read-out: Minimum Inhibitory Concentration (MIC)
[26] = IID5206, read-out: Minimum Inhibitory Concentration (MIC)
[27] = ATCC6633, read-out: Minimum Inhibitory Concentration (MIC)

Row | SMILES | MIC (Proteus morganii IID 602; [16]) [µg/mL] | MIC [3] [µg/mL] | MIC [4, 17] [µg/mL] | MIC [6] [µg/mL] | MIC (Proteus vulgaris) [µg/mL] | MIC [9] [µg/mL] | MIC [10, 19] [µg/mL] | MIC [15] [µg/mL] | MIC [2, 20] [µg/mL] | MIC (Escherichia coli N I H J; [21]) [µg/mL] | MIC (Escherichia coli MEGAWA; [22]) [µg/mL] | Minimum Inhibitory Concentration (MIC) (Escherichia coli MEGAWA; [21]) [µg/mL] | MIC [7, 23] [µg/mL] | MIC [8, 24] [µg/mL] | MIC [10, 25] [µg/mL] | MIC (Shigella sonnei IID 969; potency concentration) [µg/mL] | MIC [13, 26] [µg/mL] | MIC [14, 27] [µg/mL] | MIC (Shigella boydii IID 627; potency concentration) [µg/mL] | other results
1 | Cc1nnc(SCC2=C(C(=O)O)N3C(=O)C(NC(=O)[C@H](NC(=O)N4CCN(N=C5SCCS5)C4=O)c4ccccc4)C3SC2)s1 (single isomer, unassigned) [TO-180, 7-{D-(-)-α-[(2-oxo-3-(1,3-dithiolan-2-imino)-imidazolidin-1-yl)-carboxamido]-phenylacetoamide}-3-[5-methyl-(1,3,4-thiadiazol-2-yl)-thiomethyl]-3-cephem-4-carboxylic acid] | 1.56 (≈ 2.21 µM) | 1.56 (≈ 2.21 µM) | 1.56 (≈ 2.21 µM) | 1.56 (≈ 2.21 µM) | 1.56 (≈ 2.21 µM) | 0.39 (≈ 0.552 µM) | 1.56 (≈ 2.21 µM) | 1.56 (≈ 2.21 µM) |  |  |  |  |  |  |  |  |  |  |  | MIC ([1]; ATCC12228, Inoculum size: 10^6 cells/ml, weight concentration, read-out: Minimum Inhibitory Concentration (MIC)): 0.39 µg/mL (≈ 0.552 µM); MIC ([2]; IFO13739, Inoculum size: 10^6 cells/ml, weight concentration, read-out: Minimum Inhibitory Concentration (MIC)): 6.25 µg/mL (≈ 8.84 µM); MIC [5, 18]: 0.39 µg/mL (≈ 0.552 µM); MIC (Escherichia coli N I H J; [18]): < 0.1 µg/mL; MIC (Escherichia coli MEGAWA; Inoculum size: 10^6 cells/ml, weight concentration, read-out: Minimum Inhibitory Concentration (MIC)): 6.25 µg/mL (≈ 8.84 µM); MIC ([7]; IID5121, Inoculum size: 10^6 cells/ml, weight concentration, read-out: Minimum Inhibitory Concentration (MIC)): 25 µg/mL (≈ 35.4 µM); MIC ([8]; IID977, Inoculum size: 10^6 cells/ml, weight concentration, read-out: Minimum Inhibitory Concentration (MIC)): 3.13 µg/mL (≈ 4.43 µM); MIC ([11]; IID865, Inoculum size: 10^6 cells/ml, weight concentration, read-out: Minimum Inhibitory Concentration (MIC)): 0.39 µg/mL (≈ 0.552 µM); MIC [12, 18]: 0.39 µg/mL (≈ 0.552 µM); MIC (Shigella sonnei IID 969; weight concentration): 0.39 µg/mL (≈ 0.552 µM); MIC ([13]; IID5206, Inoculum size: 10^6 cells/ml, weight concentration, read-out: Minimum Inhibitory Concentration (MIC)): 3.13 µg/mL (≈ 4.43 µM); MIC ([14]; ATCC6633, Inoculum size: 10^6 cells/ml, weight concentration, read-out: Minimum Inhibitory Concentration (MIC)): 0.78 µg/mL (≈ 1.1 µM); MIC (Shigella boydii IID 627; weight concentration): 0.39 µg/mL (≈ 0.552 µM)
2 | CC(=O)OCC1=C(C(=O)O)N2C(=O)[C@@H](NC(=O)Cc3cccs3)[C@H]2SC1 [CET, cephalothin, reference compound] | > 100 | 0.78 (≈ 1.97 µM) | > 100 | 1.56 (≈ 3.93 µM) | 6.25 (≈ 15.8 µM) | 0.78 (≈ 1.97 µM) |  | 3.13 (≈ 7.9 µM) | > 100 | 0.39 (≈ 0.984 µM) | > 100 | < 100 | > 100 | > 100 | > 100 | 6.25 (≈ 15.8 µM) | > 100 | < 0.1 | 0.78 (≈ 1.97 µM) | MIC ([1]; ATCC12228, read-out: Minimum Inhibitory Concentration (MIC)): < 0.1 µg/mL; MIC [5]: 0.2 µg/mL (≈ 0.504 µM); MIC ([11]; IID865, read-out: Minimum Inhibitory Concentration (MIC)): 0.78 µg/mL (≈ 1.97 µM); MIC [12]: 0.2 µg/mL (≈ 0.504 µM)
3 | CC1=C(C(=O)O)N2C(=O)[C@@H](NC(=O)[C@H](N)c3ccccc3)[C@H]2SC1 [CEX, cephalexin, reference compound] | > 100 | 3.13 (≈ 9.01 µM) | > 100 | 6.25 (≈ 18 µM) | 12.5 (≈ 36 µM) | 3.13 (≈ 9.01 µM) | > 100 | 12.5 (≈ 36 µM) | > 100 |  |  | < 100 |  | > 100 |  | 6.25 (≈ 18 µM) | > 100 | 0.78 (≈ 2.25 µM) | 3.13 (≈ 9.01 µM) | MIC (Escherichia coli N I H J): 3.13 µg/mL (≈ 9.01 µM); MIC (Escherichia coli MEGAWA; read-out: Minimum Inhibitory Concentration (MIC), Inoculum size: 10^6 cells/ml, potency concentration): > 100 µg/mL; MIC ([7]; IID5121, read-out: Minimum Inhibitory Concentration (MIC)): > 100 µg/mL
4 | CN(C)CCn1nnnc1SCC1=C(C(=O)O)N2C(=O)[C@@H](NC(=O)Cc3csc(N)n3)[C@H]2SC1 [CTM, cefotiam, reference compound] |  |  |  |  |  | < 0.1 |  | < 0.1 |  | < 0.1 | 6.25 (≈ 11.9 µM) |  | > 100 |  | 25 (≈ 47.6 µM) | < 0.1 |  |  | < 0.1 | MIC ([1]; ATCC12228, Inoculum size: 10^6 cells/ml, potency concentration, read-out: Minimum Inhibitory Concentration (MIC)): 0.39 µg/mL (≈ 0.742 µM); MIC (Proteus morganii IID 602; IID602, Inoculum size: 10^6 cells/ml, potency concentration, read-out: Minimum Inhibitory Concentration (MIC)): 0.39 µg/mL (≈ 0.742 µM); MIC ([2]; IFO13739, Inoculum size: 10^6 cells/ml, potency concentration, read-out: Minimum Inhibitory Concentration (MIC)): > 100 µg/mL; MIC [3, 21]: < 0.1 µg/mL; MIC ([4]; IFO3080, Inoculum size: 10^6 cells/ml, potency concentration, read-out: Minimum Inhibitory Concentration (MIC)): > 100 µg/mL; MIC [5, 21]: 0.78 µg/mL (≈ 1.48 µM); MIC [6, 21]: 0.2 µg/mL (≈ 0.38 µM); MIC (Proteus vulgaris; [21]): 0.39 µg/mL (≈ 0.742 µM); MIC ([8]; IID977, Inoculum size: 10^6 cells/ml, potency concentration, read-out: Minimum Inhibitory Concentration (MIC)): 3.13 µg/mL (≈ 5.95 µM); MIC ([11]; IID865, Inoculum size: 10^6 cells/ml, potency concentration, read-out: Minimum Inhibitory Concentration (MIC)): < 0.1 µg/mL; MIC [12, 21]: 0.39 µg/mL (≈ 0.742 µM); MIC ([13]; IID5206, Inoculum size: 10^6 cells/ml, potency concentration, read-out: Minimum Inhibitory Concentration (MIC)): 1.56 µg/mL (≈ 2.97 µM); MIC ([14]; ATCC6633, Inoculum size: 10^6 cells/ml, potency concentration, read-out: Minimum Inhibitory Concentration (MIC)): 0.39 µg/mL (≈ 0.742 µM)
